In article PMC2781551, “Antibody Complementarity-Determining Regions (CDRs): A Bridge between Adaptive and Innate Immunity” (PLoS ONE, 2009):

Tests used:
[1] = system: peritoneal murine macrophages (PM); assay: Cytokine production by peritoneal macrophages (ELISA); format: cell-based, mouse (Balb/c); conditions: for reduction of TNF-α production induced by LPS / reduction of TNF-α production induced by VHCDR3: PM 5×10^6/ml, wortmannin 4 nM or SB203580 0,2 µM; for reduction of TNF-α production induced by LPS: LPS 10 µg/ml; for reduction of TNF-α production induced by VHCDR3: VHCDR3 10 µg/ml; for TNF-α production by PM / IL-6 production by PM: 18 h, P<0.05 vs untreated
Protocol: DC and CD4^+ T cells were separated from spleens of inbred Balb/c mice using N-418 or L3T4 mAb-conjugated MicroBeads (Miltenyi Biotec, Bergisch Gladbach, Germany), and magnetic separation was performed according to the manufacturer's instruction. Peritoneal murine neutrophils (PMN) and macrophages (PM) were collected 18 h or 4 days, respectively, after the intraperitoneal injection of 1 ml endotoxin-free 10% thioglycolate solution (Difco).
(§1) Unfractionated spleen cells (10×10^6/ml), recovered from Balb/c mice, were cultured in the presence or absence of mAb HuA and mAb MoA CDR peptides, LPS or NC (all 10 µg/ml) for 18 h in RPMI-1640 plus 10% FCS (complete medium) at 37°C and 5% CO2. After incubation, the supernatants were collected and tested for TNF-α and IL-6 levels by specific ELISA assays (Biosource, Camarillo, CA, USA). In selected experiments, PM (5×10^6/ml) were cultured as above described. After incubation, the supernatants were collected and tested for TNF-α and IL-6 levels by specific ELISA assays (Biosource). PM (5×10^6/ml) were cultured in the presence or absence of mouse VHCDR3, LPS, NC or SP (all at 10 µg/ml) for 1 or 18 h in complete medium at 37°C and 5% CO2. PM (5×10^6/ml) were cultured as above described in the presence or absence of wortmannin (4 nM) or SB203580 (0,2 µM) (both from Sigma). After incubation, the supernatants were collected and tested for TNF-α level by specific ELISA assays (Biosource). In selected experiments, PM (5×10^6/ml) were cultured in the presence or absence of VHCDR3, LPS, NC, SP and nine VHCDR3 alanine-substituted derivatives (all at 10 µg/ml) for 18 h in complete medium at 37°C and 5% CO2. After incubation, the supernatants were collected and tested for TNF-α level by specific ELISA assays (Biosource). PMN (5×10^6/ml) were cultured in the presence or absence of mAb MoA CDR peptides, LPS or NC (all 10 µg/ml) for 18 h in complete medium at 37°C and 5% CO2. After incubation, the supernatants were collected and tested for TNF-α and IL-6 levels by specific ELISA assays (Biosource). Cytokine titers were calculated by reference to standard curves, constructed with known amounts of recombinant cytokines.

TLR-4 gene = TLR-4 gene expression in PM (quantitative RT-PCR); format: cell-based, mouse (Balb/c); conditions: PM 1×10^6/ml, 10 µg/ml, qPCR normalized against GADPH, n = 5
Protocol: (§2) After incubation, cells were lysed using Trizol reagent (Invitrogen, Carlsbad, CA), and total RNA was extracted. The reverse transcriptase (RT) reaction was performed using Moloney murine leukaemia virus reverse transcriptase (M-MLV RT), as described in the manufacturer's instructions (Invitrogen).
(§3) TNF-α, TLR-4, and GADPH clones for use as standards were prepared by PCR from cDNA derived from PM and cloned into p-Drive vector (Qiagen, S.p.A., Milano, Italy). These were verified by sequence analysis. Plasmid DNA was diluted 10-fold and the starting concentration for the dilution series was 10^8 gene copies/µl.
(§4) For each target gene, primers were selected using the Beacon Designer software (Bio-Rad, Hercules, CA). Real-time RT-PCR (quantitative RT-PCR) was performed in 96-well PCR plates using the SYBR green (all from BioRad). For real-time PCR reaction 100 ng/µl of reverse-transcribed RNA was used and cDNA was normalized according to GADPH as an internal NC gene. Amplification conditions were the same for TNF-α, TLR-4 and GADPH mRNAs assayed: 3 min at 95°C, 40 cycles of 10 s at 95°C and 30 s at 62°C. For the Melt Curve, the amplification condition was: 1 min at 50°C and 90 cycles of 10 s at 50°C. The experiments were performed using the iCycler IQ Multicolor Real-time PCR Detection System (BioRad).

TLR-4 [2] = assay: TLR-4 expression in PM (flow cytometry); format: cell-based, mouse (Balb/c); conditions: PM 1×10^6/ml, 10 µg/ml, 1 h, RPE-labelled mAb to TLR-4, FACScan, representative experiment out of five
From the text: Data are reported as percentage of positive cells. […] Data are expressed as percentage of positive cells.

[3] = system: C. albicans strain (CA-6); conditions: previously proven; ref [8], [16]; cited from earlier work
From the text: The CDRs of human mAb HuA (IgM) and mouse mAb MoA (IgM) specific for the difucosyl human blood group A substance, were chemically synthesized on the basis of the previously described sequences of VH and VL chain [21]. An irrelevant synthetic decapeptide (MSTAVSKCAT), previously proven to be devoid of either candidacidal or immunomodulatory activity, was used as a negative control (NC), [16]. In selected experiments, a scramble peptide (SP) (YYWLQGGFAN) and nine VHCDR3 alanine-substituted derivatives were used for control of specificity and evalua ...

murine splenocytes = assay: Cytokine production by unfractionated spleen cells (ELISA); format: cell-based, mouse (Balb/c); conditions: 10 µg/ml, 18 h, 10×10^6 cells/ml, ELISA of supernatants, data not shown
Protocol: as §1

TNF-α gene = TNF-α gene expression in PM (quantitative RT-PCR); format: cell-based, mouse (Balb/c); conditions: PM 1×10^6/ml, 10 µg/ml, qPCR normalized against GADPH, n = 5
Protocol: as §2, §3, §4

PM = assay: Uptake of biotin-labelled peptide by PM (flow cytometry); conditions: 10 µg/ml, 37°C, FACScan, n = 7
Protocol: DC, PM, PMN and CD4^+ T cells (all 1×10^6/ml) were incubated for 1 h with biotin-labelled mouse VHCDR3 (b-VHCDR3) or biotin-labelled NC (b-NC) (both 10 µg/ml) in complete medium at 37°C and 5% CO2. After incubation, cells were fixed with 4% formalin for 5 min at room temperature (RT), permeabilized with 0.1% saponin, washed with 0.1% saponin and incubated for 20 min on ice with FITC-labelled mAb to biotin (1 µl/test; Mouse IgG1 isotype) (Miltenyi Biotec), washed with 0.1% saponin and analyzed by FACScan flow cytometry (BD Biosciences). Data are reported as percentage of positive cells. In selected experiments, PM (1×10^6/ml) were incubated for different times with b-VHCDR3 or b-NC (both 10 µg/ml) in complete medium at 37°C and 5% CO2. After incubation, cells were fixed, permeabilized and washed as above and incubated for 20 min on ice with FITC-labelled mAb to biotin, washed with 0.1% saponin and analyzed by FACScan flow cytometry (BD Biosciences). Data are reported as mean fluorescence intensity (MFI) or percentage of positive cells. […] NC staining of cells with irrelevant Abs were used to obtain background fluorescence values.
In selected experiments, PM were incubated for 1 h with b-VHCDR3 or b-NC (both 10 µg/ml) in complete medium at 37°C and 5% CO2. After incubation, cells were reacted with FITC-labelled mAb to biotin in the presence of Evans' Blue (StemCell Technologies Inc., Milan, Italy) as a counterstain, and subsequently examined under fluorescent light microscopy (Carl Zeiss, Jena, Germany).

IkBα = assay: Phospho-IkBα Western blotting in PM; format: cell-based, mouse (Balb/c); conditions: 1 h, n = 5
Protocol: (§5) After incubation, cells were washed and lysated with Mammalian protein extraction reagent (M-PER) in the presence of protease and phosphatase inhibitors (all from Pierce, Rockford, IL). Protein concentration was determined with a BCA protein Assay Reagent kit (Pierce). The lysates (30 µg of each sample) were separated by sodium dodecyl-sulfate-10% PAGE, transferred to a nitrocellulose membrane (Pierce) for 1 h at 100 V in a blotting system (Bio-Rad) for Western Blot analysis, and the membranes were incubated over-night with rabbit polyclonal Abs to phospho-Akt (pAkt; dilution 1/1000), phospho-IkBα (pIkBα; dilution 1/1000) (all from Cell Signalling Technology, Beverly, MA) and rabbit polyclonal Ab to TLR-4 (dilution 1/200) (Santa Cruz Biotechnology Inc.) in blocking buffer. […] Immunoreactive bands were visualized and quantified by Chemidoc Instrument (Bio-Rad). In particular, a quantitative analysis of the region of interest drawn around the outer edge of the band, was performed based on the guidelines for the use of the Chemidoc Instrument (Bio-Rad). […] All the parallelograms that form a band create one unique three-dimensional solid structure on which the volume is calculated. […]

TLR-4 [4] = assay: TLR-4 protein Western blotting in PM; format: cell-based, mouse (Balb/c); conditions: PM 3×10^6/ml, 10 µg/ml, 1 and 3 h, Western blot, n = 5
Protocol: as §5

[5] = system: C. albicans strain (CA-6); assay: In vitro candidacidal CFU assay; format: cell-based, Candida albicans; conditions: 100 µg/ml, CA-6 cells
Protocol: The origin and characteristics of the highly virulent C. albicans strain (CA-6) used in this study have been previously described. The culture was maintained by serial passages on Sabouraud agar (BioMérieux, Lyon, France). The yeast cells were harvested by suspending a single colony in saline, washed twice, counted in a hemocytometer and adjusted to the desired concentration.
The in vitro activity against CA-6 cells of mAb MoA synthetic CDRs at the concentration of 100 µg/ml was evaluated by a conventional Colony Forming Unit (CFU) assay as described elsewhere.

Akt = assay: Phospho-Akt Western blotting in PM; format: cell-based, mouse (Balb/c); conditions: PM 3×10^6/ml, 10 µg/ml, 1 h, Western blot, with respect to NC and SP, n = 5
Protocol: as §5

C. albicans (CA-6) = assay: Therapeutic activity against systemic candidiasis in mice; format: in vivo, Balb/c mice; conditions: 200 µg i.p. 4 h before, 100 µg 1 and 2 days after infection
Protocol: Female, 8–10 weeks old, inbred Balb/c mice were obtained from Harlan Nossan Laboratories (Milan, Italy) and housed at the Animal Facilities of the University of Perugia, Perugia, Italy. Procedures involving animals and their care were conducted in conformity with national and international laws and policies.
Groups of 7 Balb/c mice were infected intravenously with 5×10^5 or 7.5×10^5 CA-6 cells suspended in 0.5 ml saline for evaluation of fungal clearance or mice survival, respectively.
Infected animals were given 200 µg of mouse VLCDR3 or VHCDR3 peptides intraperitoneally 4 h before infection, and 100 µg 1 and 2 days after infection for a total of 400 µg/mouse. Untreated animals served as a NC. Quantification of fungal growth at 5, 7, and 12 days after infection was assessed by plating serial dilutions of kidney homogenates onto Sabouraud agar. Animal survival was monitored for 30 days after infection.

[6] = 10 µg/ml, 5×10^6 cells/ml, n = 7

Q: Which “reduction of TNF-α production induced by LPS” value [1] does the source give for `C[S+]([O-])c1ccc(-c2nc(-c3ccncc3)c(-c3ccc(F)cc3)[nH]2)cc1` (centres unmarked) [SB203580] here?
A: 28%

Q: What about the “reduction of TNF-α production induced by VHCDR3” value [1] of the same molecule?
A: 21%

Q: Which “TNF-α production by PM” value ([1]; 10 µg/ml, 5×10^6 cells/ml) does the source give for “MSTAVSKCAT [NC, irrelevant synthetic decapeptide used as a negative control, reference compound]” here?
A: did not stimulate cytokine production

Q: What about the “IL-6 production by PM” value [1, 6] of the same molecule?
A: did not stimulate cytokine production

Q: What about the “TLR-4 gene expression, 1 h” value (TLR-4 gene) of the same molecule?
A: No activation

Q: And the “Percentage of TLR-4 positive cells” value (TLR-4 [2])?
A: 24.1

Q: And the “candidacidal or immunomodulatory activity” value [3]?
A: devoid

Q: And the “IL-6 production by splenocytes” value (murine splenocytes)?
A: did not affect cytokine production

Q: What about the “TNF-α production by splenocytes” value (murine splenocytes) of the same molecule?
A: did not affect cytokine production

Q: And the “TNF-α gene expression, 1 and 6 h” value (TNF-α gene)?
A: inability

Q: For GQYGNLWFAY [VHCDR3], which “TNF-α production by PM after 1 h” value ([1]; 10 µg/ml, 1 h, 5×10^6 cells/ml, n = 7) is on record?
A: significant increase

Q: What about the “TNF-α production by PM” value ([1]; 10 µg/ml, 5×10^6 cells/ml) of the same molecule?
A: significant up-regulation

Q: What about the “IL-6 production by PM” value [1, 6] of the same molecule?
A: significant up-regulation

Q: And the “kinetics of uptake by PM (MFI and percentage of positive cells), 6 and 18 h” value (PM; 6 and 18 h incubation)?
A: persisted

Q: And the “kinetics of uptake by PM (MFI and percentage of positive cells), 1 h” value (PM; 1 h incubation)?
A: high level

Q: What about the “kinetics of uptake by PM (MFI and percentage of positive cells), 72 h” value (PM; 72 h incubation) of the same molecule?
A: negligible levels

Q: And the “TLR-4 gene expression, 1 h” value (TLR-4 gene)?
A: significant increase

Q: And the “TLR-4 gene expression, 6 h” value (TLR-4 gene; 6 h)?
A: declined

Q: What about the “Percentage of TLR-4 positive cells” value (TLR-4 [2]) of the same molecule?
A: significant increase

Q: What about the “Percentage of TLR-4 positive cells” value (TLR-4 [2]; listed as VH CDR3) of the same molecule?
A: 38.1

Q: And the “IL-6 production by splenocytes” value (murine splenocytes)?
A: increased production

Q: And the “TNF-α production by splenocytes” value (murine splenocytes)?
A: increased production

Q: What about the “IkBα phosphorylation (pIkBα normalized against IkBα)” value (IkBα; PM 3×10^6/ml, 10 µg/ml, Western blot, compared to NC) of the same molecule?
A: increased activation of pIkBα

Q: And the “TLR-4 protein (normalized against actin)” value (TLR-4 [4])?
A: significant up-regulation

Q: And the “candidacidal effect in vitro” value [5]?
A: ineffective

Q: And the “Akt phosphorylation (pAkt normalized against Akt)” value (Akt)?
A: increased activation of pAkt

Q: And the “CFU recovery from kidneys” value (C. albicans (CA-6); 5×10^5 CA-6 cells i.v., 5, 7 and 12 days after infection, n = 7)?
A: impressive decrease

Q: What about the “survival of infected mice” value (C. albicans (CA-6); 7.5×10^5 CA-6 cells i.v., 30 days, vs untreated or VLCDR3-treated, Log rank P<0.05, n = 7) of the same molecule?
A: significant increase in survival

Q: And the “TNF-α gene expression, 1 and 6 h” value (TNF-α gene)?
A: significant increase

Q: And the “TNF-α gene expression, 18 h” value (TNF-α gene; 18 h)?
A: rapid decline of gene expression

Q: With `COC[C@H]1OC(=O)c2coc3c2[C@@]1(C)C1=C(C3=O)[C@@H]2CCC(=O)[C@@]2(C)C[C@H]1OC(C)=O` [wortmannin] as the molecule, how does the “reduction of TNF-α production induced by LPS” value [1] read?
A: 39%

Q: What about the “reduction of TNF-α production induced by VHCDR3” value [1] of the same molecule?
A: 28%

Q: What about the “effect on VHCDR3-induced IkBα phosphorylation” value (IkBα; PM, wortmannin 4 nM with VHCDR3 10 µg/ml) of the same molecule?
A: significantly reduced

Q: Which results are given for “QQRSNWPRS [mAb HuA VLCDR3, synthetic VLCDR3 of human mAb HuA]”?
A: IL-6 production by PM [1, 6]: significant up-regulation; IL-6 production by splenocytes (murine splenocytes): significant up-regulation
